Reference: BindingDB's records for doi:10.1021/jm960594+ (Nippon Zoki Pharmaceutical, 1997)

molecular target: T1, Aldo-keto reductase family 1 member A1 (Rattus norvegicus, UniProt P51635); experiment: In vitro inhibitory activity against rat kidney aldehyde reductase(ALR).
T1 sequence (P51635 whole entry): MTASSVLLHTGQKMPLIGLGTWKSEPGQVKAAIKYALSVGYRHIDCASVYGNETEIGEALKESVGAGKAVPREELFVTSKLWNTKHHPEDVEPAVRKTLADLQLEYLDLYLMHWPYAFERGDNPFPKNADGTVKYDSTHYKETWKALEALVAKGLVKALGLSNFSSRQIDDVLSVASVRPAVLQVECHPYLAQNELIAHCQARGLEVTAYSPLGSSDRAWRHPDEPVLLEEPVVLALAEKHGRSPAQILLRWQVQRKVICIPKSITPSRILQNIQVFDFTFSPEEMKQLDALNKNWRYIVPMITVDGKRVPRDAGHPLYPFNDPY

IC50, > 100 µM:
O=C(O)Cn1c(O)c(O)n(Cc2cccc([N+](=O)[O-])c2)c1=O
O=C(O)Cn1c(=O)cc(O)n(Cc2cccc([N+](=O)[O-])c2)c1=O [[3-(3-Nitro-benzyl)-2,4,6-trioxo-tetrahydro-pyrimidin-1-yl]-acetic acid]
O=C(O)Cn1cc(O)n(Cc2cccc([N+](=O)[O-])c2)c1=O [[3-(3-Nitro-benzyl)-2,4-dioxo-imidazolidin-1-yl]-acetic acid]
O=C(O)Cn1c(O)cn(Cc2cccc([N+](=O)[O-])c2)c1=O [[3-(3-Nitro-benzyl)-2,5-dioxo-imidazolidin-1-yl]-acetic acid]
